Like-named read-outs stand apart in the source and are kept apart here.
Experiments:
[1] = Mouse IF pharmacokinetic study: plasma IF by HPLC, alone or after GFJ or naringin pre-administration; assay type: in vivo, ICR male mice
Description: For the study, 7 groups with 12 animals each were intragastrically (ig) administered with 300 mg/kg of IF. Then, we obtained 1 mL of blood by cardiac puncture at 2.5, 5, 7.5, 10, 20, 30, and 60 min post-administration.
Blood samples were immediately centrifuged at 3500 rpm. Aliquots of 250 µL were stored at −70 °C until the quantification of IF plasmatic concentrations was carried out.
Besides in our research, 7 groups with 12 animals each were ig administered with naringin (250 mg/kg) to evaluate its influence on the concentration/time profiles of IF, a chemical that was ig administered 60 min later (300 mg/kg). Seven other groups were ig administered GFJ (20.8 µL/g) and 60 min later ig treated with 300 mg/kg of IF. In both assays, we obtained blood samples at 2.5, 5, 7.5, 10, 20, 30, and 60 min post-administration. With the indicated design we examined the influence of GFJ or naringin on the concentration/time profiles of IF.
For the blood treatment, after thawing, we added 250 μL of the internal standard (CF) to each sample, after which the plasma was deproteinized with methanol 1:1.5 (plasma-methanol), and centrifuged at 3500 rpm for 10 min. Subsequently, we transferred 450 μL of the supernatant to an Eppendorf tube containing 550 μL of phosphate buffer 0.01 N, pH 4.0. The solution was activated with 1 mL of methanol plus 1 mL of phosphate buffer 0.01 N, pH 4.0, and loaded to a Bond Elut-CH cartridge under reduced pressure. The cartridge was washed with 1 mL of acetonitrile plus phosphate buffer 0.01 N, pH 4.0 (10–90%) and it was eluted with 500 μL of acetonitrile plus phosphate buffer 0.025 N, pH 4.0 (40–60%). A volume of 20 μL were injected in the stabilized HPLC system.
The pharmacokinetic parameters of IF and their interaction with naringin or GFJ were calculated by non-compartmental assessment of data using the computer program WinNonlin (V4.0, Pharsight, Mountain View, CA, USA). The maximum plasma concentrations (Cmax) and their time of occurrence (Tmax) were both obtained directly from the measured data. The area under the plasma concentration-time curve, from time zero to the time of the last measurable concentration (AUC0-t) was calculated with the linear trapezoidal method. AUC0-∞ was calculated AUC0-t + Ct/λz, where Ct is the last measurable concentration and λz the constant rate of terminal elimination. The corresponding half-life elimination (t1/2) was then calculated as 0.693/λz. The results corresponding to Cmax were statistically analyzed with the ANOVA and the Student-Newman-Keuls tests. With respect to AUC0-t, Tmax, and t1/2 the analysis was made with the Kruskal-Wallis test.

[2] = Stability of IF in the plasma of mouse under various storage conditions (HPLC); assay type: in vitro ADME; conditions: n = 3
Description: The short-term stability was determined after the exposure of the spiked samples to room temperature for 24 h. The long-term stability was evaluated after storage of the standard spiked plasma samples at −70 °C for 30 days. The freeze/thaw cycle stability was assessed after two complete freeze/thaw cycles (−70 to 25 °C) on consecutive days. The analytes were considered to be stable in plasma when 85–115% of the initial concentrations were found.
Chromatography conditions for the study were as follows: the mobile phase consisted of acetonitrile, potassium phosphate buffer 0.025 M at pH 4.0, and triethylamine (12:88:0.025, v/v) with a final pH of 6.2. The flow-rate was 1.2 mL/min. The analytical column was operated at ambient temperature. The HPLC system consisted of a Beckman System Gold, 128 Solvent Module with ultra-violet detection at 200 nm. We used a 3.5 μm Xterra RP-8 (4.6 × 150 mm) column. Data were collected by the HPLC system and transferred to a Dell Pentium computer.

[3] = IF only, 300 mg/kg ig, mouse plasma, 300 mg/kg
[4] = male, ICR, mouse, plasma, po, 300 mg/kg, GFJ 20.8 µL/g ig 1 h before IF 300 mg/kg ig, mouse plasma
[5] = male, ICR, mouse, plasma, po, 300 mg/kg, IF only, 300 mg/kg ig, mouse plasma
[6] = male, ICR, mouse, plasma, po, 300 mg/kg, naringin 250 mg/kg ig 1 h before IF 300 mg/kg ig, mouse plasma

Question: What does the source list for `O=P1(NCCCl)OCCCN1CCCl` (stereo not drawn) [IF, ifosfamide]?
Answer: Cmax ([1]; GFJ 20.8 µL/g ig 1 h before IF 300 mg/kg ig, mouse plasma): 71.35 ± 3.57^a♣ μg/mL; AUC0−∞ [1, 3]: 2110.36 ± 114.98 µg·min/mL; Cmax [1, 3]: 58080 ± 5010 ng/mL; Tmax [1, 3]: 10.83 ± 1.28 min; t1/2 [1, 3]: 23.55 ± 1.86 min; AUC(0-inf) [1, 4]: 34200 ng·h/mL; half-life [1, 4]: 16.5 ± 1.43 min; Cmax ([1]; male, ICR, mouse, plasma, po, 300 mg/kg, GFJ 20.8 µL/g ig 1 h before IF 300 mg/kg ig, mouse plasma, read-out: Cmax): 71300 ng/mL; Tmax ([1]; male, ICR, mouse, plasma, po, 300 mg/kg, GFJ 20.8 µL/g ig 1 h before IF 300 mg/kg ig, mouse plasma, read-out: Tmax (converted)): 8.7 min; AUC(0-inf) [1, 5]: 35200 ng·h/mL; half-life [1, 5]: 23.5 min; Cmax ([1]; male, ICR, mouse, plasma, po, 300 mg/kg, IF only, 300 mg/kg ig, mouse plasma, read-out: Cmax): 58100 ng/mL; Tmax ([1]; male, ICR, mouse, plasma, po, 300 mg/kg, IF only, 300 mg/kg ig, mouse plasma, read-out: Tmax (converted)): 10.8 min; AUC(0-inf) [1, 6]: 37400 ng·h/mL; half-life [1, 6]: 26.8 ± 3.77 min; Cmax ([1]; male, ICR, mouse, plasma, po, 300 mg/kg, naringin 250 mg/kg ig 1 h before IF 300 mg/kg ig, mouse plasma, read-out: Cmax): 64100 ± 4370 ng/mL; Tmax ([1]; male, ICR, mouse, plasma, po, 300 mg/kg, naringin 250 mg/kg ig 1 h before IF 300 mg/kg ig, mouse plasma, read-out: Tmax (converted)): 5 min; Cmax ([1]; male, ICR, mouse, plasma, po, naringin 250 mg/kg ig 1 h before IF 300 mg/kg ig, mouse plasma, read-out: Cmax): 64100 ng/mL; Concentration found ([2]; freeze and thaw stability (−70 to 25 °C), two cycles, added 90 μg/mL): 81.34 ± 4.99 µg/mL; Concentration found ([2]; long-term (30 days, −70 °C), added 90 μg/mL): 108.34 ± 1.64 µg/mL; Concentration found ([2]; short-term (24 h, 25 °C), added 10 μg/mL): 12.31 ± 0.68 µg/mL; Concentration found ([2]; short-term (24 h, 25 °C), added 90 μg/mL): 100.11 ± 14.27 µg/mL

Question: Which “Change of half-life (t1/2) of IF with respect to IF alone” value ([1]; naringin 250 mg/kg ig 1 h before IF 300 mg/kg ig, mouse) does the source give for `C[C@@H]1O[C@@H](O[C@H]2[C@H](Oc3cc(O)c4c(c3)O[C@H](c3ccc(O)cc3)CC4=O)O[C@H](CO)[C@@H](O)[C@@H]2O)[C@H](O)[C@H](O)[C@H]1O` [naringin, 4′,5,5-trihdroxy-flavanone-7-rhamnoglucoside] here?
Answer: no change

Question: And the “Difference of AUC0−∞ of IF with respect to IF alone” value ([1]; naringin 250 mg/kg or GFJ 20.8 µL/g ig 1 h before IF 300 mg/kg ig, mouse)?
Answer: no statistical difference

Reference: PMC6851181 (Scientific Reports, 2019)
